Where two headings read alike, the source gives them in different places.
How the values were obtained:
[1] = system: patient-derived GBM gliomaspheres; test: Annexin V apoptosis assay; format: cell-based, human; settings: 72 hours of erlotinib exposure, 1 μM
Description: Cells were collected and analyzed for Annexin V and PI staining according to manufacturer's protocol (BD Biosciences). Briefly, cells were plated at 5×10^4 cells/ml and treated with appropriate drugs. Following indicated time points, cells were collected, trypsinized, washed with PBS, and stained with Annexin V and PI for 15 minutes. Samples were then analyzed using the BD LSRII flow cytometer.
Annexin V staining was measured following 72 hrs of treatment. Using the Chalice software, the response of the combination was compared to its single agents. The combinatorial effects were calculated using the synergy score.

[2] = Protein binding (fraction unbound in blood and brain)
[3] = cited from earlier work
[4] = system: GBM39 and HK393 intracranial xenografts; test: Intracranial delayed 18F-FDG PET/CT mouse imaging; format: in vivo, mice
Description: Following 1 hr unconscious uptake, mice were taken off anesthesia but kept warm for another 5 hr of uptake. 6 hr after the initial administration of ^18F-FDG, mice were imaged using G8 PET/CT scanner (Sofie Biosciences). Per above, quantification was performed by drawing 3D regions of interest (ROI) using the AMIDE software.

[5] = system: BIM, PUMA; PI3K-AKT-mTOR signaling; test: Immunoblotting; format: cell-based, human; settings: only in the metabolic responder cultures, acute erlotinib treatment
Description: Cells were collected and lysed in RIPA buffer (Boston BioProducts) containing Halt Protease and Phosphatase Inhibitor (Thermo Fischer Scientific). Lysates were centrifuged at 14,000×g for 15 min at 4° C. […] Membranes were developed using the SuperSignal system (Thermo Fischer Scientific).

[6] = Pharmacokinetic / brain penetration studies in mice; format: in vivo
Description: Pharmacokinetic studies were performed on male CD-1 mice aged 8-10 weeks. Mice were dosed as indicated in duplicates. At the time points, whole blood was obtained by retro-orbital bleeding and brain tissue was harvested. Blood samples were centrifuged to obtain plasma and brain tissue was washed and homogenized. Samples were extracted with acetonitrile and supernatant was dried using a speed-vac. Dried samples were solubilized in 50:50:0.1 acetonitrile:water:formic acid and quantified on an Agilent 6400 series Triple Quadrupole LC/MS.
Disclosed in table 5 Brain to plasma percentages and unbound ratios of drugs in brain to plasma of indicated drugs in non-tumor bearing mice

gliomas = settings: cited from earlier work
[7] = system: patient-derived GBM gliomaspheres; test: 18F-FDG uptake assay; format: cell-based, human; settings: metabolic responder GBMs, erlotinib 1 μM, 4 hours
Description: Cells were plated at 5×10^4 cells/ml and treated with designated drugs for indicated time points. Following appropriate treatment, cells were collected and resuspended in glucose-free DMEM/F12 (USBiological) containing ^18F-FDG (radioactivity 1 μCi/mL). Cells were incubated at 37° C. for 1 hr and then washed three times with ice cold PBS. Radioactivity of each sample was then measured using a gamma counter.

HK301 = test: GI50 assay (Cell Titer Glo proliferation, 3 days); format: cell-based, human; settings: Homo sapiens, 72 h, read-out: HK301 GI50 (nM)
[8] = higher dose: Erlotinib 1500 (weekly), Gefitinib 750-1000

SMILES: C#Cc1cccc(Nc2ncnc3cc(OCCOC)c(OCCOC)cc23)c1 [Erlotinib, erlotinib]
- apoptosis (annexin V staining) ([1]; metabolic responders): ~17%
- apoptosis (annexin V staining) ([1]; non-responders): ~3%
- Bound (blood) ([2]; blood): 95.12%
- fraction unbound ([2]; blood, Fu (blood)): 0.0488
- Bound (brain) ([2]; brain): 97.07%
- fraction unbound ([2]; brain, Fu (brain)): 0.0293
- CSF ([3]; Daily Dose: Afatinib 50, Alectinib 1200, Crizotinib 500, Erlotinib 150, Gefitinib 250, Lapatinib 1250): 28.7 ± 16.8 ng/mL
- Plasma ([3]; Daily Dose: Afatinib 50, Crizotinib 500, Erlotinib 150, Gefitinib 250, Lapatinib 1250): 1140 ± 937 ng/mL
- CSF [3, 8]: 51.1 ng/mL
- Plasma [3, 8]: 4445.9 ng/mL
- 18F-FDG uptake (PET) ([4]; GBM39 orthotopic xenografts, erlotinib 75 mg/kg, 15 hours post administration): rapidly reduced
- 18F-FDG uptake (PET) ([4]; HK393 orthotopic xenografts (non-metabolic responder), acute EGFRi): no changes
- expression of pro-apoptotic BH3-only proteins BIM and PUMA [5]: promoted the expression
- Kpuu (Avg) ([6]; Table 4, unbound partition coefficient of the brain and plasma, at equilibrium): 0.0513
- Kpuu (Avg) ([6]; Table 5, unbound ratios of drugs in brain to plasma, non-tumor bearing mice): 0.051
- response rates against gliomas (gliomas): ≤ 25%
- radio-labeled glucose uptake (18F-FDG) [7]: significantly attenuated
- GI50 (HK301): 642 nM

From US11377451B2, “Compositions and methods for treating cancer” (The Regents of the University of California, priority 2019, dated 2022)
